Measurements from US20230346670A1, “Prebiotic Oral Care Compositions and Methods” (Colgate-Palmolive Company, priority 2020, published 2023).

Assays:
Assay type in all cases: cell-based
[1] = tested on: multi-species biofilm (beneficial/commensal species, periodontal pathogens, cariogenic pathogens); assay: Multi-species biofilm composition, relative proportions and group changes
Protocol: Biofilms are grown vertically on Calcium Deficient Hydroxyapatite (CAD-HA) disks (Hitemco Medical, Old Bethpage, USA) using the Amsterdam Active Adhesion model. […] After this 24 h, disks are rinsed 3 times a day for 3 minutes (RT, 250 rpm), for 3 consecutive days, by transferring the lid containing the disks to a new 24-well plate containing 2 mL/well of the appropriate substrate solution. As a negative control, PBS (pH 5.7) without substrate supplementation is used. N-acetyl-D-glucosamine (NADG), α-D-lactose, D-(+)-trehalose and D-(+)-raffinose are selected to determine their effects on multi-species biofilm composition. Repeated rinsing of the biofilms with the substrates at a concentration of 1 M results in a significant decrease in absolute numbers in at least four of the pathogenic bacterial species tested in the assay, in comparison to the control, the results of which are described in Table 1 below. Note, NADG decreased absolute numbers of S. sobrinus. Absolute abundances of bacterial species are shown as mean ± SD (n = 3) logarithmic values of the genome equivalents per millilitre (log(Geq/mL)).

[2] = tested on: A. actinomycetemcomitans; assay: Multi-species biofilm composition, absolute abundance (Geq/mL); details: repeated rinsing
Protocol: (§1) Biofilms are grown vertically on Calcium Deficient Hydroxyapatite (CAD-HA) disks (Hitemco Medical, Old Bethpage, USA) using the Amsterdam Active Adhesion model. Biofilms are allowed to establish during 24 h (37° C., 170 rpm) under microaerophilic conditions (6% O2, 7% CO2, 7% H2, 80% N2). After this 24 h, disks are rinsed 3 times a day for 3 minutes (RT, 250 rpm), for 3 consecutive days, by transferring the lid containing the disks to a new 24-well plate containing 2 mL/well of the appropriate substrate solution. As a negative control, PBS (pH 5.7) without substrate supplementation is used.
(§2) N-acetyl-D-glucosamine (NADG), α-D-lactose, D-(+)-trehalose and D-(+)-raffinose are selected to determine their effects on multi-species biofilm composition. Repeated rinsing of the biofilms with the substrates at a concentration of 1 M results in a significant decrease in absolute numbers in at least four of the pathogenic bacterial species tested in the assay, in comparison to the control, the results of which are described in Table 1 below. Note, NADG decreased absolute numbers of S. sobrinus. Absolute abundances of bacterial species are shown as mean ± SD (n = 3) logarithmic values of the genome equivalents per millilitre (log(Geq/mL)).

[3] = tested on: P. gingivalis; assay: as above; details: repeated rinsing
Protocol: as §1, §2

[4] = tested on: S. gordonii; assay: as above; details: repeated rinsing
Protocol: as §1, §2

[5] = tested on: S. mitis; assay: as above; details: repeated rinsing
Protocol: as §1, §2

[6] = tested on: S. oralis; assay: as above; details: for absolute abundance of S. oralis, mean ± SD log (Geq/mL): repeated rinsing
Protocol: as §1, §2

[7] = tested on: P. intermedia; assay: as above; details: repeated rinsing
Protocol: as §1, §2

[8] = tested on: S. sobrinus; assay: as above; details: repeated rinsing
Protocol: as §1, §2

[9] = tested on: A. naeslundii; assay: as above; details: repeated rinsing
Protocol: as §1, §2

[10] = tested on: P. intermedia virulence genes; assay: Virulence gene expression in multi-species biofilm (SYBR RT-qPCR); details: for fold change in DnaJ expression, geometric mean (95% C.I.) / fold change in DnaK expression, geometric mean (95% C.I.) / fold change in ECF expression, geometric mean (95% C.I.) / fold change in GroES expression, geometric mean (95% C.I.) / fold change in HtpG expression, geometric mean (95% C.I.) / fold change in KpsD expression, geometric mean (95% C.I.) / fold change in adpc expression, geometric mean (95% C.I.) / fold change in clpB expression, geometric mean (95% C.I.) / fold change in inpA expression, geometric mean (95% C.I.) / fold change in phg expression, geometric mean (95% C.I.): relative to control = 1
Protocol: as §1
The virulence of the substrate-treated multi-species biofilms are evaluated by analyzing the relative expression of 33 genes that are recognized as being related to some form of virulence and from 4 periodontal pathogens.
Expression of bacterial virulence genes is analyzed through SYBR RT-qPCR and normalized for bacterial housekeeping gene expression. […] These effects are illustrated in Tables 6a and 6b:
Note, for Table 6d, fold changes in virulence gene expression are determined relatively to the control condition through the 2^^-ΔΔCt method and are shown as the geometric mean (C.I.) (n = 3) of the 2^^-ΔΔCt values. All substrates are dissolved in PBS at a concentration of 1 M (upper part) or 1%(w/v) (lower part). Values between 0 and 1 represent relative downregulation, values >1 represent relative upregulation. […] NADG: N-acetyl-D-glucosamine; C.I.: 95% confidence interval.

[11] = Table 1a, substrate 1 M, listed as D-(+)-raffinose
[12] = Table 3, separate experiments, concentration not given
[13] = lower part of Table 6d, head prints 1 M (lower part 1%(w/v))
[14] = upper part of Table 6d, substrate 1 M, n = 3

## OC[C@H]1O[C@H](OC[C@H]2O[C@H](O[C@]3(CO)O[C@H](CO)[C@@H](O)[C@@H]3O)[C@H](O)[C@@H](O)[C@@H]2O)[C@H](O)[C@@H](O)[C@H]1O [D-raffinose, D-(+)-raffinose]
[1]; Table 1a, substrate 1 M
  relative proportion of beneficial or commensal species in biofilm: 95.86 (+/- 1.63)^∗ % (Geq/mL)
  relative proportion of cariogenic pathogens in biofilm: 1.85 (+/- 0.68) % (Geq/mL)
  relative proportion of periodontal pathogens in biofilm: 2.29 (+/- 1.40)^∗ % (Geq/mL)
[1]; [11]
  relative proportion of beneficial or commensal species in biofilm: 95.86±1.63 % (Geq/mL)
  relative proportion of cariogenic pathogens in biofilm: 1.85±0.68 % (Geq/mL)
  relative proportion of periodontal pathogens in biofilm: 2.29±1.40 % (Geq/mL)
[1]; [12]
  relative proportion of beneficials/commensals in biofilm: 64.27 (+/- 1.84) % (Geq/mL)
  relative proportion of cariogenic pathogens in biofilm: 0.27 (+/- 0.09) % (Geq/mL)
  relative proportion of periodontal pathogens in biofilm: 35.46 (+/- 1.82) % (Geq/mL)
[2]; substrate 1% (w/v)
  absolute abundance of A. actinomycetemcomitans (Aa), mean ± SD log (Geq/mL): 9.14 ± 0.12 log (Geq/mL)
[2]; substrate 1 M in PBS, n = 3
  absolute abundance of A. actinomycetemcomitans (Aa), mean ± SD log (Geq/mL): 8.30 ± 0.29^∗ log (Geq/mL)
[3]; substrate 1% (w/v)
  absolute abundance of P. gingivalis (Pg), mean ± SD log (Geq/mL): 6.94 ± 0.21 log (Geq/mL)
[3]; substrate 1 M in PBS, n = 3
  absolute abundance of P. gingivalis (Pg), mean ± SD log (Geq/mL): 4.59 ± 0.45^∗ log (Geq/mL)
[4]; substrate 1% (w/v)
  absolute abundance of S. gordonii, mean ± SD log (Geq/mL): 8.12 ± 0.06 log (Geq/mL)
[4]; substrate 1 M in PBS, n = 3
  absolute abundance of S. gordonii, mean ± SD log (Geq/mL): 8.93 ± 0.31 log (Geq/mL)
[5]; substrate 1% (w/v)
  absolute abundance of S. mitis, mean ± SD log (Geq/mL): 2.65 ± 0.00 log (Geq/mL)
[5]; substrate 1 M in PBS, n = 3
  absolute abundance of S. mitis, mean ± SD log (Geq/mL): 3.58 ± 1.31 log (Geq/mL)
[6]; substrate 1% (w/v)
  decrease in S. oralis numbers in comparison to the control: ~ 0.9 log(Geq/mL)
  absolute abundance of S. oralis, mean ± SD log (Geq/mL): 5.98 ± 0.18^∗ log (Geq/mL)
[6]; substrate 1 M in PBS, n = 3
  absolute abundance of S. oralis, mean ± SD log (Geq/mL): 8.52 ± 0.17^∗ log (Geq/mL)
[7]; substrate 1% (w/v)
  absolute abundance of P. intermedia (Pi), mean ± SD log (Geq/mL): 7.83 ± 0.32 log (Geq/mL)
[7]; substrate 1 M in PBS, n = 3
  absolute abundance of P. intermedia (Pi), mean ± SD log (Geq/mL): 5.21 ± 0.77^∗ log (Geq/mL)
[8]; substrate 1% (w/v)
  absolute abundance of S. sobrinus, mean ± SD log (Geq/mL): 5.36 ± 0.20 log (Geq/mL)
[8]; substrate 1 M in PBS, n = 3
  absolute abundance of S. sobrinus, mean ± SD log (Geq/mL): 7.06 ± 0.15 log (Geq/mL)
[9]; substrate 1% (w/v)
  absolute abundance of A. naeslundii (An), mean ± SD log (Geq/mL): 7.62 ± 0.08 log (Geq/mL)
[9]; substrate 1 M in PBS, n = 3
  absolute abundance of A. naeslundii (An), mean ± SD log (Geq/mL): 5.32 ± 0.25^∗ log (Geq/mL)
[10]; [13]
  fold change in DnaJ expression, geometric mean (95% C.I.): 1.56 (0.59-4.12) fold
  fold change in DnaK expression, geometric mean (95% C.I.): 1.76 (0.61-5.06) fold
  fold change in ECF expression, geometric mean (95% C.I.): 0.96 (0.56-1.64) fold
  fold change in GroES expression, geometric mean (95% C.I.): 0.98 (0.24-4.05) fold
  fold change in HtpG expression, geometric mean (95% C.I.): 0.67 (0.43-1.04) fold
  fold change in KpsD expression, geometric mean (95% C.I.): 0.90 (0.58-1.40) fold
  fold change in adpc expression, geometric mean (95% C.I.): 0.85 (0.23-3.13) fold
  fold change in clpB expression, geometric mean (95% C.I.): 1.13 (0.86-1.48) fold
  fold change in inpA expression, geometric mean (95% C.I.): 0.98 (0.64-1.52) fold
  fold change in phg expression, geometric mean (95% C.I.): 0.73 (0.33-1.63) fold
[10]; substrate 1% (w/v)
  impact on P. intermedia virulence gene expression: limited impact
[10]; substrate 1 M
  downregulation of P. intermedia virulence gene expression: 3 fold
[10]; [14]
  fold change in DnaJ expression, geometric mean (95% C.I.): 1.76 (0.92-3.37) fold
  fold change in DnaK expression, geometric mean (95% C.I.): 10.07 (6.81-14.89)^∗ fold
  fold change in ECF expression, geometric mean (95% C.I.): 6.74 (1.96-23.20)^∗ fold
  fold change in GroES expression, geometric mean (95% C.I.): 10.59 (4.96-22.60)^∗ fold
  fold change in HtpG expression, geometric mean (95% C.I.): 1.90 (0.99-3.67)^∗ fold
  fold change in KpsD expression, geometric mean (95% C.I.): 1.78 (0.71-4.45) fold
  fold change in adpc expression, geometric mean (95% C.I.): 1.02 (0.40-2.60) fold
  fold change in clpB expression, geometric mean (95% C.I.): 2.21 (1.53-3.21) fold
  fold change in inpA expression, geometric mean (95% C.I.): 1.39 (0.67-2.90) fold
  fold change in phg expression, geometric mean (95% C.I.): 0.33 (0.21-0.50)^∗ fold
